Experiment [1] deals with T1, DNA dC->dU-editing enzyme APOBEC-3G (Homo sapiens, UniProt Q9HC16). Nature of the experiment: Dose Response confirmation of small molecule APOBEC3G DNA Deaminase Inhibitors via a fluorescence-based single-stranded DNA deaminase assay. [Related pubchem assays (depositor defined):AID493012, AID493028]. In kind it is functional.
Experiment [2] is described as follows: SAR analysis of small molecule activators of Apaf-1 using a LZ-Caspase-9/Caspase-3 Fluorescent Selectivity assay - Set 2. The experiment is classed as functional. The settings on record: read-out: EC50_Mean.
For experiment [3], the target named is T2, Apoptotic protease-activating factor 1 (Homo sapiens, UniProt O14727).
T2 sequence (O14727 whole entry): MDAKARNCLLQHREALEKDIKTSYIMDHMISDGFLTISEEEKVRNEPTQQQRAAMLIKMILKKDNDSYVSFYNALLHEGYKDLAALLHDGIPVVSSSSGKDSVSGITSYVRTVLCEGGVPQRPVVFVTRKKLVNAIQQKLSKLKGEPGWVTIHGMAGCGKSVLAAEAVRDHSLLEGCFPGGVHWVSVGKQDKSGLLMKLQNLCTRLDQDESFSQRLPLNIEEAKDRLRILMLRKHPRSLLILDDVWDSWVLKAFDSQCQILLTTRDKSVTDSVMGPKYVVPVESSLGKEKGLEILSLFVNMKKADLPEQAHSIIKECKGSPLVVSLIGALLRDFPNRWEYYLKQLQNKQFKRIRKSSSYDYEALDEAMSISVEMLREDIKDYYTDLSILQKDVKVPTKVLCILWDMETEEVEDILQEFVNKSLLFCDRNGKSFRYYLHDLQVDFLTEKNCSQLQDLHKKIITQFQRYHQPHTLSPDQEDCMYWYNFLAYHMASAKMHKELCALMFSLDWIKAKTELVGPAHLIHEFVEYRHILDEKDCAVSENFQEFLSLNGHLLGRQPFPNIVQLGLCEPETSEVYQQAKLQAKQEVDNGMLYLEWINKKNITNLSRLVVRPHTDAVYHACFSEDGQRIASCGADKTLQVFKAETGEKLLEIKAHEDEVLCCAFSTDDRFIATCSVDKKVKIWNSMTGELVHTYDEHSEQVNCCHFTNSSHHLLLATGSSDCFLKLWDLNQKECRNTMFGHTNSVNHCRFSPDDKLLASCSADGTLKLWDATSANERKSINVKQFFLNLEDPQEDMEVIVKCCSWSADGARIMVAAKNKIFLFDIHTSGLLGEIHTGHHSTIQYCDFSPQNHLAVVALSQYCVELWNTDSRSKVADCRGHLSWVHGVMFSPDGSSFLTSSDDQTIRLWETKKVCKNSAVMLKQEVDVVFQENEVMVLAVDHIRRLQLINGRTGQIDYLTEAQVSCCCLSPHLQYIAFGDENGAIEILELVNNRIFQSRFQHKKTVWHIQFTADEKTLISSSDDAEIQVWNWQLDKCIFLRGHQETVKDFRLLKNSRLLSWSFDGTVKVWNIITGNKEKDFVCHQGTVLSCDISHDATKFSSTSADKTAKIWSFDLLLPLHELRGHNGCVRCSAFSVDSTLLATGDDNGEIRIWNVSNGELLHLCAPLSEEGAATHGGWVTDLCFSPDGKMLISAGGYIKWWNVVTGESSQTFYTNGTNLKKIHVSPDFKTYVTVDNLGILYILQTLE
The experiment is described as follows: SAR analysis of small molecule Activators of Apaf-1 in a Fluorescent assay. In kind it is functional. The note with it: read-out: EC50_Mean.

In experiment [4] the target is T2, Apoptotic protease-activating factor 1. Nature of the experiment: SAR analysis of small molecule Activators of Apaf-1 in a Fluorescent assay - set 2. In kind it is functional. The note with it: read-out: EC50_Mean.
A short description of a further experiment: cells. In kind it is functional.
For experiment [5], the target named is T3, V-type proton ATPase subunit c' (Saccharomyces cerevisiae S288c, UniProt P32842). The experiment is described as follows: Dose Response of Small Molecules that Regulate V-ATPase Proton Transport in Yeast using pHLuorin, Cherry Pick 2. The experiment is classed as functional. The settings on record: read-out: EC50_MICROM.
T3 sequence (P32842 whole entry): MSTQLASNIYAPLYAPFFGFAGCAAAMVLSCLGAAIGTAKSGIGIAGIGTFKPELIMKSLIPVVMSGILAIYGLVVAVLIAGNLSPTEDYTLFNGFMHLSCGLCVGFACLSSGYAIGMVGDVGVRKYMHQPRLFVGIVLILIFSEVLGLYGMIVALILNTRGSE
Experiment [6] concerns the target T3, V-type proton ATPase subunit c'. The experiment is described as follows: Dose Response with BCECF Assay for V-ATPase inhibitors that increase vacuolar pH, Powder Set 1. In kind it is functional. The note with it: read-out: EC50_MICROM.
The target in experiment [7] is Multidrug resistance protein CDR2 (Candida albicans (strain SC5314 / ATCC MYA-2876) (Yeast), UniProt P78595). Nature of the experiment: inhibition of Nile Red efflux via Candida CDR2 – S. cerevisiae AD1-8u, singleplex, Cherry Pick1 hits, dose response (AID 588604). The experiment is classed as functional.
Chain of Multidrug resistance protein CDR2 (P78595 whole entry): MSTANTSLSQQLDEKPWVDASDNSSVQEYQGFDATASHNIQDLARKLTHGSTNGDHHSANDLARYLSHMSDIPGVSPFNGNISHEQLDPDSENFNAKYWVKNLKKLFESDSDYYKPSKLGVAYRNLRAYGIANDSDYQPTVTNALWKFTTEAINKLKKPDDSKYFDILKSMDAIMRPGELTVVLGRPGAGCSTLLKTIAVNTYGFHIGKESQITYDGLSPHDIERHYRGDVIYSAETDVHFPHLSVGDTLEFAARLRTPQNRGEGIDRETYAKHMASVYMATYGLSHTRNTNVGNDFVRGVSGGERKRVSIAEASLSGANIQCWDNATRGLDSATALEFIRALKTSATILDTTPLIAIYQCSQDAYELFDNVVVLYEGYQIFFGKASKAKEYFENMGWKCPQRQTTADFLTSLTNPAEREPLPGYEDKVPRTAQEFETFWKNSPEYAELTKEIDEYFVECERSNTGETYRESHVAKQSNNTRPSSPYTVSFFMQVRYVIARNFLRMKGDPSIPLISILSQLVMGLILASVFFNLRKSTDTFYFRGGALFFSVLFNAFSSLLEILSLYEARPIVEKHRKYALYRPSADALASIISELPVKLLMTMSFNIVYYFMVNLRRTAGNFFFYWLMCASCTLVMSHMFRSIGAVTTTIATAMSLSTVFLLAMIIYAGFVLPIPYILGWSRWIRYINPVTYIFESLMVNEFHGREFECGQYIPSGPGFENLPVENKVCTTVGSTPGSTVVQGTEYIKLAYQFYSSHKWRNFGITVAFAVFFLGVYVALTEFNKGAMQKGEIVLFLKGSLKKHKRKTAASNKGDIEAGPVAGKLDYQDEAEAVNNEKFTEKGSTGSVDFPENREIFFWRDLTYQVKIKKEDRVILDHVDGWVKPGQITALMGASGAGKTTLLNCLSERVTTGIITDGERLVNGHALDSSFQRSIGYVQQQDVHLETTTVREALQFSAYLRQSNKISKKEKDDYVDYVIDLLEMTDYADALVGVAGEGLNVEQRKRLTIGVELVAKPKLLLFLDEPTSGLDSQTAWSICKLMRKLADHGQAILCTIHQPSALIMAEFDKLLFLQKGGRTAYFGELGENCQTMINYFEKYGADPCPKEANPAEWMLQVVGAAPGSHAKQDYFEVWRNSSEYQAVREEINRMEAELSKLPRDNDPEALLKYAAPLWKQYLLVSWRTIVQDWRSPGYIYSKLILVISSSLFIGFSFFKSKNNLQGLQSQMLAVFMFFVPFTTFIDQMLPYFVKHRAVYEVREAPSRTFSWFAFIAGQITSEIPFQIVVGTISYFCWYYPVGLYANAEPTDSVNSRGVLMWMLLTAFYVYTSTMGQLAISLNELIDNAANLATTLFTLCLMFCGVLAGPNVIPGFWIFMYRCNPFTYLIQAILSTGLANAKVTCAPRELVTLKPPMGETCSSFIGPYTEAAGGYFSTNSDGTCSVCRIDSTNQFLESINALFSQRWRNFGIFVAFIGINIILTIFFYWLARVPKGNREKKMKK
Experiment [8] concerns the target T2, Apoptotic protease-activating factor 1. In kind it is functional.
The target in experiment [9] is T4, Sentrin-specific protease 8 (Homo sapiens, UniProt Q96LD8).
T4 sequence (Q96LD8 whole entry): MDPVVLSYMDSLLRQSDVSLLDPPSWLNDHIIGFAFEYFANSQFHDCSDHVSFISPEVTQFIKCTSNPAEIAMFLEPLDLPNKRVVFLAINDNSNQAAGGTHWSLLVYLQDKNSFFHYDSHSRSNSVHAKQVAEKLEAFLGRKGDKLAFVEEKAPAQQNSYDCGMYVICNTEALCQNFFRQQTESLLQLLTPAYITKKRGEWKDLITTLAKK
The experiment is classed as functional.

Experiment [10] deals with T4, Sentrin-specific protease 8. The experiment is classed as functional. This is another data set of the same source.
In experiment [11] the target is T5, Histone-lysine N-methyltransferase NSD2 (Homo sapiens, UniProt O96028).
T5 sequence (O96028 whole entry): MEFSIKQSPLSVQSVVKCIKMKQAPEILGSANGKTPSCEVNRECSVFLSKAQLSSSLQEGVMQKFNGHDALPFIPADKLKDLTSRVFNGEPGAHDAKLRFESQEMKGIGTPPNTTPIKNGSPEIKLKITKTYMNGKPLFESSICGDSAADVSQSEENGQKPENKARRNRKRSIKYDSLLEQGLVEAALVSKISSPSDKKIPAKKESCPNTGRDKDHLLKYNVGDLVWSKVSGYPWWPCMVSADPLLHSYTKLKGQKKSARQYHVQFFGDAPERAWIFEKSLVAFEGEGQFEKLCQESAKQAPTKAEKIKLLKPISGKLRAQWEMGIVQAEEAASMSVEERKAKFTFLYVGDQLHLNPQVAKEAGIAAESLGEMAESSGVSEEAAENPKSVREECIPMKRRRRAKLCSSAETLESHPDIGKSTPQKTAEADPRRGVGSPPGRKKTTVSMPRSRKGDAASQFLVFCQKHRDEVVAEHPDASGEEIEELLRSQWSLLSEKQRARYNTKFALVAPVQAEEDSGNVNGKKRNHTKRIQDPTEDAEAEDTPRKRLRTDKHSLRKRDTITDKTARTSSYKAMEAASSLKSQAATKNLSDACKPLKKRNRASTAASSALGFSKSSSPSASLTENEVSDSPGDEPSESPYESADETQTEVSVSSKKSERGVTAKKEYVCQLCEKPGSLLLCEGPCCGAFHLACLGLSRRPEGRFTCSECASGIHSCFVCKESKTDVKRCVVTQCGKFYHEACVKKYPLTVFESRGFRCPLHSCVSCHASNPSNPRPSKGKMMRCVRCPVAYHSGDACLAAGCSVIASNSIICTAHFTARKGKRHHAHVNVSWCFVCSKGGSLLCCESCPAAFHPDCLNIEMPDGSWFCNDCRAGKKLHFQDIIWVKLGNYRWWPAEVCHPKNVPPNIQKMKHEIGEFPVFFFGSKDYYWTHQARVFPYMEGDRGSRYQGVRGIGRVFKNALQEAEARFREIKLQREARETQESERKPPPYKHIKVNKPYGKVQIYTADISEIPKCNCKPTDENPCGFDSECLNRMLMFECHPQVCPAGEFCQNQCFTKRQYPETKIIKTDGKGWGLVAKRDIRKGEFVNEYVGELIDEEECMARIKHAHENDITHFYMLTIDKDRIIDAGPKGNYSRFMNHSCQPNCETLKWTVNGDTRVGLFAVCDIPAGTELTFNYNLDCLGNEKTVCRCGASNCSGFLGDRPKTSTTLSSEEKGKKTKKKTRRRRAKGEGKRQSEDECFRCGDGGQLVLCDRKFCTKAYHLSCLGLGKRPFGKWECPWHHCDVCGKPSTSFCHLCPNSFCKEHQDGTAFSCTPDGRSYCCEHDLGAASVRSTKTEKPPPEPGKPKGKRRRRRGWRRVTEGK
The experiment is classed as biochemical.

In experiment [12] the target is Tyrosyl-DNA phosphodiesterase 2 (Homo sapiens, UniProt O95551). The experiment is described as follows: potency against TDP2 phosphodiesterase activity – biochemical, epi absorbance, IC50, dose response (AID 743297).
Chain of Tyrosyl-DNA phosphodiesterase 2 (O95551 whole entry): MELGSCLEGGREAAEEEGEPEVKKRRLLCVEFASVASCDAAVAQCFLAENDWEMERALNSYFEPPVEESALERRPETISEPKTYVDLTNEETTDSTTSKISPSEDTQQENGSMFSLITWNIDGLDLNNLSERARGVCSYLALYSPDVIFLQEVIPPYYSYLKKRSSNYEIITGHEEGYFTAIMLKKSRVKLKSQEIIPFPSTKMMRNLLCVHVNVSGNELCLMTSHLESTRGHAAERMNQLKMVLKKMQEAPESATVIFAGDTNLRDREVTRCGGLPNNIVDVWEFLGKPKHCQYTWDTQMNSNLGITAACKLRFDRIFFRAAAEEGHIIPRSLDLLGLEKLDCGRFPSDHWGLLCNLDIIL
Experiment [13] addresses Protein disulfide-isomerase (Homo sapiens, UniProt P07237). Nature of the experiment: inhibition of PDI-driven insulin aggregation – biochemical, turbidity, absorbance, cherry-picked samples, dose response (AID 602350). In kind it is functional.
Experiment [14] can be described thus: suppression of NO production in INS-1E cells – cell-based, Griess absorbance, dry powder, set 3, dose response (AID 488870). The experiment is classed as functional. The note with it: Rattus norvegicus.
In a further experiment the test system is INS1. The experiment is described as follows: suppression of NO production in INS-1E cells – cell-based, Griess absorbance, dry powder, set 2, dose response (AID 488868). In kind it is functional. The note with it: Rattus norvegicus. (The Griess reaction detects nitrite, a stable product of nitric oxide.)
For experiment [15], the target named is T6, Neuropeptides B/W receptor type 1 (Homo sapiens, UniProt P48145).
T6 sequence (P48145 whole entry): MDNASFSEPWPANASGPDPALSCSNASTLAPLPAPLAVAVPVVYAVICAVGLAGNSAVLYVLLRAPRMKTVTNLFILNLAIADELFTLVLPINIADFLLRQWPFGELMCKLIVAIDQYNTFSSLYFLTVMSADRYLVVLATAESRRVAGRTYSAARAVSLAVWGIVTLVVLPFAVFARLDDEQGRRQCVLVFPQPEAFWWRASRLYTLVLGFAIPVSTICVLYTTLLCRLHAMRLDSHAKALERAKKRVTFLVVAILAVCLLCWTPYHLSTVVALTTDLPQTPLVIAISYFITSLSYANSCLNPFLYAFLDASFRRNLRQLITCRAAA
Nature of the experiment: human NPBW1 receptor blockade, IC50 – cell-based, fluorescence, dose response, set 5, late-stage follow-up (AID 588566). The experiment is classed as functional.

For experiment [16], the target named is Melanin-concentrating hormone receptor 1 (Homo sapiens, UniProt Q99705). The experiment is described as follows: Late-stage fluorescence-based counterscreen for antagonists of the G-protein coupled receptor 7 (GPR7): cell-based dose response assay to identify antagonists of the melanin-concentrating hormone receptor 1 (MCHR1) Set 5. In kind it is functional. (The purpose of a counterscreen is to sort out artefacts and off-target activity.)
Chain of Melanin-concentrating hormone receptor 1 (Q99705 whole entry): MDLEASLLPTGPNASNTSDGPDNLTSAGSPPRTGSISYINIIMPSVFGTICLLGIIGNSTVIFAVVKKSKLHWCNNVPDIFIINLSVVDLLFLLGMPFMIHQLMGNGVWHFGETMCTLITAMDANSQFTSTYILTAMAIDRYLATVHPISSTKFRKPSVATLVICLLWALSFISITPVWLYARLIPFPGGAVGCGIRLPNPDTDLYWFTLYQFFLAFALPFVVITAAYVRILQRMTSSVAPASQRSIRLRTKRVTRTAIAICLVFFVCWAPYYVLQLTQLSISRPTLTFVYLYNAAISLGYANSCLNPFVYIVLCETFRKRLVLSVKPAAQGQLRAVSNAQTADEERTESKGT

Experiment [17] concerns the target T1, DNA dC->dU-editing enzyme APOBEC-3G. The experiment is described as follows: inhibition of APOBEC3G ssDNA deamination – biochemical, fluorescence, single-stranded DNA substrate, SAR follow-up (AID 602136). The settings on record: read-out: IC50_Mean. The experiment is classed as functional.
The target of experiment [18] is DNA dC->dU-editing enzyme APOBEC-3A (Homo sapiens, UniProt P31941). Nature of the experiment: SAR analysis of small molecule inhibitors of APOBEC3A DNA Deaminase via a fluorescence-based single-stranded DNA deaminase assay. The experiment is classed as functional. The note with it: read-out: IC50_Mean.
Chain of DNA dC->dU-editing enzyme APOBEC-3A (P31941 whole entry): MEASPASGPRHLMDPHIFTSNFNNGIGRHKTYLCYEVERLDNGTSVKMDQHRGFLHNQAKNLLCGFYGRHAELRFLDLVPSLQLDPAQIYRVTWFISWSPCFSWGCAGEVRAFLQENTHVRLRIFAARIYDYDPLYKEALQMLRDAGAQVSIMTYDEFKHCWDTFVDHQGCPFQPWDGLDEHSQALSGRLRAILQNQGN
A further experiment addresses Melanocortin receptor 4 (Homo sapiens, UniProt P32245). Nature of the experiment: inhibitors of MC4R cAMP signaling – cell-based, TR-FRET, biased antagonists, dose response (AID 602298).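 Further: antagonist potency against agonist-stimulated cAMP production.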 In kind it is functional.
Experiment [19] is described as follows: cAMP pathway inhibition in counterscreen cell line – TR-FRET cAMP detection, counter-screen for MC4R biased antagonist project, dose response (AID 602305).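 Further: U2OS cells stimulated with forskolin near its EC80 as the cAMP inducer; potency is for inhibition of forskolin-stimulated cAMP signaling.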 The experiment is classed as functional, cell-based.

“And” between values parts separate entries of the source, which are not always exact repeats. Equal entries are not always repeated. The source made the active and inactive calls. Some results are limits rather than exact numbers.

Here are results for nine molecules from ChEMBL document CHEMBL1201862, “PubChem BioAssay data set” (2004).

In general, AC50 refers to the midpoint of the concentration-response curve, whichever way the signal moves.

T1 sequence (Q9HC16 whole entry): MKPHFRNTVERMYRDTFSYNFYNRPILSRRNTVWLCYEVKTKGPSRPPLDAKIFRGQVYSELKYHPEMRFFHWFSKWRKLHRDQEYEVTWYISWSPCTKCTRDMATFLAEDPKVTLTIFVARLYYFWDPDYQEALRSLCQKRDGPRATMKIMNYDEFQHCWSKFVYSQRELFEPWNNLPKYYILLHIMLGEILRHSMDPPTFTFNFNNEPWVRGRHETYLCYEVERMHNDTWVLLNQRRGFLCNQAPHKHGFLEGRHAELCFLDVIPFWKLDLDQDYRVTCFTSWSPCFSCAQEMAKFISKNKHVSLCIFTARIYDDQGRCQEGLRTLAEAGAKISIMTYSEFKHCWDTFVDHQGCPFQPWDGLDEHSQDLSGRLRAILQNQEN
Chain of Protein disulfide-isomerase (P07237 whole entry): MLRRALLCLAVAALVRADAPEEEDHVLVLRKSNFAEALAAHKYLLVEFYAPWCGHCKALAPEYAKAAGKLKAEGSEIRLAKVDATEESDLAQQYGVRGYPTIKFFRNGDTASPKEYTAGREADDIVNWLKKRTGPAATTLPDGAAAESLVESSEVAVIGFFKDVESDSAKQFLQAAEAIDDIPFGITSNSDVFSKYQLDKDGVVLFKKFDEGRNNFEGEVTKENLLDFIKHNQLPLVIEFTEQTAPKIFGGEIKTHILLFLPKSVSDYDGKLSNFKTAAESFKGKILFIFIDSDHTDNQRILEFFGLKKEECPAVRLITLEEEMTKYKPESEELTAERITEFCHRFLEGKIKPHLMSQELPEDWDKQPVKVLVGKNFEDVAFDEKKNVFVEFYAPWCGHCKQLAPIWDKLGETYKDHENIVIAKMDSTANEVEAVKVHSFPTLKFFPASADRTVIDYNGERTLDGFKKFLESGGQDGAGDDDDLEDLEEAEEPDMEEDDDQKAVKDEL
Chain of Melanocortin receptor 4 (P32245 whole entry): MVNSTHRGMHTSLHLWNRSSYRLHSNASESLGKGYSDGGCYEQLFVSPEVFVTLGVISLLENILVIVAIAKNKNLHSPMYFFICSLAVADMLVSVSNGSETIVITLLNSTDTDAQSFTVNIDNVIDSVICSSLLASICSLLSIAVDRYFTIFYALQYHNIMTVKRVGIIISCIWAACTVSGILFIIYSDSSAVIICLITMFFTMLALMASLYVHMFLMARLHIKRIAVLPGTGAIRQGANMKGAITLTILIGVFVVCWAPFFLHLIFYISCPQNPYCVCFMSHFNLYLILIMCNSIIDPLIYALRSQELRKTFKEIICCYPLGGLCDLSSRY

Regarding `O=C(O)C1CC(c2ccc(F)cc2)=NO1` (configuration not stated), the IC50 in experiment [1] was 10.9 µM (active). The EC50 in [2] was > 100 µM (inactive) and > 99 µM (inactive); in [3] it was 6.69 µM (active); in experiment [4] it was 6.39 µM (active) and 3.86 µM (active) and > 99 µM (inactive).

As for `O=C(c1ccc([N+](=O)[O-])o1)N1CCN(c2nc3ccc(F)cc3s2)CC1`, in “cells”, the IC50 was < 0.1 µM (active). For the same molecule, the EC50 in [5] is 3.64 µM (active); in experiment [6], 0.384 µM (active).

For `COc1ccc2nccc(/C=C/c3ccnc4ccc(OC)cc34)c2c1`, the EC50 in experiment [7] is 14 µM (active).

For the molecule `C[n+]1cccc2c(Br)ccc([O-])c21`, the IC50 in [8] was 92 µM (active); in experiment [9], 4.18 µM (active); in experiment [10], 1.64 µM (active); in [12] it was > 42.8 µM (inactive). Besides, in experiment [11], the AC50 is 7.45 µM (active).

For the molecule `C[C@H](CO)N1C[C@H](C)[C@@H](CN(C)S(=O)(=O)c2ccc(F)cc2)Oc2ccc(NC(=O)Cc3cn(C)c4ccccc34)cc2C1=O`, in experiment [13], the AC50 was 19.5 µM (active).

Consider `COc1ccc(S(=O)(=O)N(C)C[C@@H]2Oc3c(NC(=O)NC4CCCCC4)cccc3C(=O)N([C@@H](C)CO)C[C@H]2C)cc1`, for which the AC50 in experiment [14] was 64.5 µM (active); with INS1, 44.5 µM (active).

With `CCOc1ccc(Sc2cnn(Cc3cccc4ccccc34)c(=O)c2Cl)cc1`, the values for the IC50 in experiment [15] and in experiment [16] were 5 µM (active) and > 20 µM (inactive), respectively.

With `Cc1cc(C(=O)CSc2nnc3scc(-c4ccccc4)n23)c(C)n1-c1cc(F)ccc1F`, the IC50 in experiment [17] and in experiment [18] was > 99 µM (inactive) throughout.

For the molecule `Cn1ccs/c1=N\C(=O)c1ccc(S(C)(=O)=O)c([N+](=O)[O-])c1`, the IC50 (at Melanocortin receptor 4; in experiment [19]) was > 64.6 µM (inactive) throughout.
